The test system of one data set is male Sprague-Dawley rats. As to conditions: rat; cited from earlier work.
The nature of the next data set: log P (Table 1). Format: physicochemical.
The subject of data set [1] is rats pretreated with scopolamine. As to conditions: cited from earlier work.

The values below come from patent US5385894A, “Disubstituted 6-aminoquinazolinones” (Merck & Co., Inc., priority 1994, dated 1995).

Each structure is given as a SMILES string.

In the case of `CN1C(=O)CN=C(c2ccccc2)c2cc(Cl)ccc21` [Diazepam], the “activity in CER assay” value with male Sprague-Dawley rats is “active”.

What is called logP is a log measure of how a compound divides between an organic and an aqueous phase. Higher therefore signals higher lipophilicity. The compound `CCCc1nc2ccc(N(Cc3cccnc3)C(=O)c3ccc(O)cc3)cc2c(=O)n1Cc1ccc(-c2ccccc2-c2nn[nH]n2)cc1` [Example 181] gave a log partition coefficient (logP) in the data set “log P (Table 1)” of 2.8. On the same count and under the same terms, for `CCCc1nc2ccc(N(Cc3ccc(C(=O)O)cc3)C(=O)c3ccccc3)cc2c(=O)n1Cc1ccc(-c2ccccc2-c2nn[nH]n2)cc1` [Example 182] the value was 2.4; for `CCCc1nc2ccc(N(Cc3ccc(C(=O)OC)cc3)C(=O)c3ccccc3)cc2c(=O)n1Cc1ccc(-c2ccccc2-c2nn[nH]n2)cc1` [Example 183], 4.4.

For `CNC(=O)Oc1ccc2c(c1)[C@]1(C)CCN(C)[C@@H]1N2C` [physostigmine], the “activity in rat passive avoidance assay” value in data set [1] is recorded as “active”.
